Assay results reported in US9657018B2, “Antagonists acting at multiple prostaglandin receptors for the treatment of inflammation” (Allergan, Inc., priority 2014, dated 2017).
Structures can show the parent of a compound that is named as a salt.

Tests used:
[1] = target: T1, human prostanoid TP receptor (Homo sapiens, UniProt P21731); assay: FLIPR Ca2+ signaling antagonist assay, TP receptor stable cell line; assay type: cell-based; design: key to FLIPR data TP (Kb): PAg = partial agonist; Ag = agonist; NA = not active; conditions: human recombinant TP in HEK-293 EBNA cells; standard agonist U-46619; NA = no antagonism or Kb>=10,000 nM
T1 construct: expressed in transfected cells
T1 sequence (P21731 1-343): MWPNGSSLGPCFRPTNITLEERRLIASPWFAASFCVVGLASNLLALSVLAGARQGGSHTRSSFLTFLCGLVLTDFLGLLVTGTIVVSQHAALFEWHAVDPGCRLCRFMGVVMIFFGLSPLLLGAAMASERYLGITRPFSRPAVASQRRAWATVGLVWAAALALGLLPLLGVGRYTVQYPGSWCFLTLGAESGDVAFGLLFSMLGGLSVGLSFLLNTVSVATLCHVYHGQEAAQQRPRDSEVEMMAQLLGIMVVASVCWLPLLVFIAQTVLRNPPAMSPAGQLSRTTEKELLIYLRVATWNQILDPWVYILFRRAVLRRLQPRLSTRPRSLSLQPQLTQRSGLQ
Protocol: (§1) The above compounds were tested for PG antagonist activity as follows using human recombinant prostanoid receptor (DP1, EP1-4, FP, IP and TP) stable cell lines:
(§2) In order to measure the response of Gs and Gi coupled prostanoid receptors as a Ca^2+ signal, chimeric G protein cDNAs were used. Stable cell lines over-expressing human prostanoid DP1, EP1-4, FP, IP, and TP receptors were established as follows:
(§3) Briefly, human prostanoid DP1, EP2, and EP4 receptor cDNAs were co-transfected with chimeric Gqs cDNA containing a haemagglutanin (HA) epitope; human prostanoid EP3 receptors were co-transfected with chimeric Gqi-HA; human EP1, FP, IP, and TP receptor cDNAs were expressed with no exogenous G-proteins. Gqs and Gqi chimeric cDNAs (Molecular Devices, Sunnyvale, Calif., U.S.A.), as well as cDNAs of prostanoid receptors, were cloned into a pCEP4 vector with a hygromycin B selection marker. Transfection into HEK-293 EBNA (Epstein-Barr virus nuclear antigen) cells was achieved by the FuGENE 6 transfection Reagent (Roche Applied Science, Indianapolis, Ind., USA). Stable transfectants were selected according to hygromycin resistance. Because Gqs and Gqi contained an HA epitope, G-protein expression was detected by Western blotting analysis using anti-mouse HA monoclonal antibody and horseradish peroxidase (HRP)-conjugated secondary antibody, while functional expression of prostanoid receptors was detected by FLIPR screening (Matias et al., 2004). These stable cell lines were validated using previously published antagonists at 10 μM against serial dilutions of standard agonists by FLIPR functional assays for Ca^2+ Signaling (as described below).
(§4) Ca^2+ signaling studies were performed using a FLIPR TETRA system (Molecular Devices, Sunnyvale, Calif., USA) in the 384-format. This is a high-throughput instrument for cell-based assays to monitor Ca^2+ signaling associated with GPCRs and ion channels. Cells were seeded at a density of 5×10^4 cells/well in BioCoat poly-D-lysine coated, black wall, clear bottom 384-well plates (BD Biosciences, Franklin lakes, NJ, USA) and allowed to attach overnight in an incubator at 37° C. The cells were then washed twice with HBSS-HEPES buffer (Hanks' balanced salt solution without bicarbonate and phenol red, 20 mM HEPES, pH 7.4) using an ELx405 Select CW Microplate Washer (BioTek, Winooski, Vt., USA). After 60 min of dye-loading in the dark using the Ca^2+-sensitive dye Fluo-4AM (Invitrogen, Carlsbad, Calif., USA), at a final concentration of 2×10^−6M, the plates were washed 4 times with HBSS-HEPES buffer to remove excess dye and leaving 50 μl of buffer in each well. The plates were then placed in the FLIPR TETRA instrument and allowed to equilibrate at 37° C. AGN-211377 was added in a 25 μl volume to each well to give final concentrations of 0.1 μl. M, 0.4M, 1 μM, 3 μl. M, 10 μl. M, and 30 μl. M; or 0.067 μM, 0.4M, 0.67 μM, and 1 μM for cells over-expressing TP receptors. After 4.5 minutes, a 7-point serial dilution of the standard agonist for the corresponding receptor, in a 25 μl volume was injected at the final concentrations from 10^−11M to 10^−5M in 10-fold serial dilution increments for cells expressing human recombinant DP1, EP1, EP2, EP3, EP4, FP, and IP receptors. The dose range for the standard agonist for human recombinant TP receptors was from 10^−12M to 10^−6M. HBSS-HEPES buffer was used as the negative control for the standard agonists. Cells were excited with LED (light emitting diode) excitation at 470-495 nm and emission was measured through an emission filter at 515-575 nm. Assay plates were read for 3.5 minutes using the FLIPR^TETRA. The peak increase in fluorescence intensity was recorded for each well. On each plate, negative controls, dose response of positive controls, and co-treatments of antagonist-agonist for each dose were in triplicates. Standard agonists were as follows: DP=BW 245C, EP1-EP4=PGE2, FP=17-phenyl-PGF2a, IP=Cicaprost, and TP=U-46619. […]

[2] = target: T2, human prostanoid EP1 receptor (Homo sapiens, UniProt P34995); assay: FLIPR Ca2+ signaling antagonist assay, EP1 receptor stable cell line; assay type: cell-based; conditions: human recombinant EP1 in HEK-293 EBNA cells; standard agonist PGE2; NA = no antagonism or Kb>=10,000 nM
T2 construct: expressed in transfected cells
T2 sequence (P34995 1-402): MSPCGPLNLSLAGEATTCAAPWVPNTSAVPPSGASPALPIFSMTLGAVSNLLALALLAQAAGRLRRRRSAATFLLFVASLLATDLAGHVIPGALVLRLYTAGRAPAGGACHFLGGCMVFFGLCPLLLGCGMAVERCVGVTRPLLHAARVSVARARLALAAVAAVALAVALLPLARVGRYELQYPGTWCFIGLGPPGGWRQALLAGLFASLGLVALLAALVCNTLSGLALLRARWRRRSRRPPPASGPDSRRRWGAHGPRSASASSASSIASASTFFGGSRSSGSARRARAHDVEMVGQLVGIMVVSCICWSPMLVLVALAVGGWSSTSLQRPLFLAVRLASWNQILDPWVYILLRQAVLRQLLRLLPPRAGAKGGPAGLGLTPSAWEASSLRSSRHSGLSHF
Protocol: as §1, §2, §3, §4

Row | Compound | Kb [1] [µM] | Kb [2] [µM] | FLIPR data TP (Kb) [1]
1 | CC(C)Cn1ncc2cc(Cl)cc(Cn3cnc4cc(C(=O)O)ccc43)c21 [Compound 50, 1-(5-Chloro-1-isobutyl-1H-indazol-7-ylmethyl)-1H-benzoimidazole-5-carboxylic acid] | 5 | > 10 | –
2 | CC(C)Cn1ncc2cc(OC(F)(F)F)cc(Cn3cnc4cc(C(=O)O)ccc43)c21 [Compound 56, 1-(1-Isobutyl-5-trifluoromethoxy-1H-indazol-7-ylmethyl)-1H-benzoimidazole-5-carboxylic acid] | 0.03 | 9 | –
3 | CC(C)n1ncc2cc(Br)cc(Cn3ncc4cc(C(=O)O)ccc43)c21 [Compound 46, 1-(5-Bromo-1-isopropyl-1H-indazol-7-ylmethyl)-1H-indazole-5-carboxylic acid] | 1.4 | 3 | –
4 | CC(C)Cn1ncc2cc(F)cc(Cn3ncc4cc(C(=O)O)ccc43)c21 [Compound 43, 1-(5-Fluoro-1-isobutyl-1H-indazol-7-ylmethyl)-1H-indazole-5-carboxylic acid] | 0.45 | > 10 | –
5 | CC(C)Cn1ncc2cc(Cl)cc(Cn3ncc4cc(C(=O)O)cnc43)c21 [Compound 49, 1-(5-Chloro-1-isobutyl-1H-indazol-7-ylmethyl)-1H-pyrazolo[3,4-b]pyridine-5-carboxylic acid] | 0.17 | 9.8 | –
6 | Cc1nn(Cc2cc(Br)cc3cnn(CC(C)C)c23)c2ccc(C(=O)O)cc12 [Compound 53, 1-(5-Bromo-1-isobutyl-1H-indazol-7-ylmethyl)-3-methyl-1H-indazole-5-carboxylic acid] | 1 | 5.7 | –
7 | CC(C)Cn1ncc2cc(Cl)cc(Cn3nc(N)c4cc(C(=O)O)ccc43)c21 [Compound 68, 3-Amino-1-[(5-chloro-1-isobutyl-indazol-7-yl)methyl]indazole-5-carboxylic acid] | 1.3 | > 10 | –
8 | CC(C)Cn1ncc2cc(OC(F)(F)F)cc(Cn3ncc4cc(C(=O)O)ccc43)c21 [Compound 45, 1-(1-Isobutyl-5-trifluoromethoxy-1H-indazol-7-ylmethyl)-1H-indazole-5-carboxylic acid] | – | 0.8 | Ag
9 | CCC(CC)Cn1ncc2cc(Br)cc(Cn3ncc4cc(C(=O)O)ccc43)c21 [Compound 47, 1-[5-Bromo-1-(2-ethyl-butyl)-1H-indazol-7-ylmethyl]-1H-indazole-5-carboxylic acid] | 0.7 | 0.5 | –
10 | CNc1nn(Cc2cc(Cl)cc3cnn(CC(C)C)c23)c2ccc(C(=O)O)cc12 [Compound 70, 1-[(5-Chloro-1-isobutyl-indazol-7-yl)methyl]-3-(methylamino)indazole-5-carboxylic acid] | 0.3 | 2.3 | –
11 | CC(C)Cn1ncc2cc(Cl)cc(Cn3cnc4cc(C(=O)O)cnc43)c21 [Compound 51, 3-(5-Chloro-1-isobutyl-1H-indazol-7-ylmethyl)-3H-imidazo[4,5-b]pyridine-6-carboxylic acid] | 0.28 | > 10 | –
12 | CC(C)Cn1ncc2cc(Cl)cc(Cn3ccc4cc(C(=O)O)cnc43)c21 [Compound 52, 1-(5-Chloro-1-isobutyl-1H-indazol-7-ylmethyl)-1H-pyrrolo[2,3-b]pyridine-5-carboxylic acid] | 0.02 | 0.6 | –
13 | CC(C)Cn1ncc2cc(C(F)(F)F)cc(Cn3ncc4cc(C(=O)O)ccc43)c21 [Compound 44, 1-(1-Isobutyl-5-trifluoromethyl-1H-indazol-7-ylmethyl)-1H-indazole-5-carboxylic acid] | – | 1.5 | Ag
14 | CC(C)Cn1ncc2cc(C(F)(F)F)cc(Cn3cnc4cc(C(=O)O)ccc43)c21 [Compound 55, 1-(1-Isobutyl-5-trifluoromethyl-1H-indazol-7-ylmethyl)-1H-benzoimidazole-5-carboxylic acid] | – | 4 | Ag
15 | CCCn1ncc2cc(Cl)cc(Cn3ncc4cc(C(=O)O)ccc43)c21 [Compound 48] | 0.74 | > 10 | –
16 | Cc1nn(Cc2cc(Br)cc3cnn(CC(C)C)c23)c2ncc(C(=O)O)cc12 [Compound 54, 1-(5-Bromo-1-isobutyl-1H-indazol-7-ylmethyl)-3-methyl-1H-pyrazolo[3,4-b]pyridine-5-carboxylic HCl salt] | 1.6 | > 10 | –
17 | CC(C)Cn1ncc2cc(Cl)cc(Cc3ncc4cc(C(=O)O)ccn34)c21 [Compound 61, 3-[(5-Chloro-1-isobutyl-indazol-7-yl)methyl]imidazo[1,5-a]pyridine-7-carboxylic acid] | > 10 | > 10 | –
18 | CC(C)Cn1ncc2cc(Cl)cc(Cn3ncc4cc(C(=O)O)ccc43)c21 [Compound 41, 1-(5-Chloro-1-isobutyl-1H-indazol-7-ylmethyl)-1H-indazole-5-carboxylic acid] | 0.04 | 0.73 | –
19 | CC(C)Cn1ncc2cc(Br)cc(Cn3ncc4cc(C(=O)O)ccc43)c21 [Compound 42, 1-(5-Bromo-1-isobutyl-1H-indazol-7-ylmethyl)-1H-indazole-5-carboxylic acid] | 0.16 | 2.3 | –
